These results are taken from ChEMBL document CHEMBL6092136, “Design, classification, and adverse effects of NSAIDs: A review on recent advancements” (Bioorg Med Chem, 2024).

Series [1] is described as follows: Selectivity index, ratio of IC50 for COX-2 (unknown origin) to IC50 for COX-1 (unknown origin).
The species named for a further series is Ovis aries. Briefly: Selectivity index, ratio of IC50 for inhibition of ovine COX-1 to IC50 for inhibition of ovine COX-2.
The nature of series [2]: Inhibition of soya bean 15-LOX by enzyme immune assay. More on the design: species or system Glycine max.
The subject of series [3] is Rattus norvegicus. Put plainly: Acute ulcerogenic activity in Albino Wistar rat assessed as ulcer index at 18 mg/kg via oral gavage once daily for 3 days. The class given is toxicity, organism-based. Particulars: in vivo, 72 h, time 3 day.
The subject of series [4] is Rattus norvegicus. Put plainly: Antiinflammatory activity in formalin-induced paw edema in Wistar albino rat model assessed as reduction in paw edema volume at 18 mg/kg, po administered once daily via gavage by 7 days. The class given is functional. On the set-up: scale not given: the % may be the effect or the level left. Particulars: time 7 day.

As for `COc1ccc2cc(C(C)C(=O)O/N=C(\N)c3ccc(OC)c(OC)c3)ccc2c1` (configuration not stated), the Ratio IC50 in series [1] stood at 13.
As to `CCOC(=O)c1cnn(C(=O)c2c(C)nn(-c3ccc(S(C)(=O)=O)cc3)c2N)c1N`, in the series listed under Ovis aries, the Ratio IC50 was determined as 247.
A word on the IC50: it is the concentration that gives 50% inhibition. With `Cc1ccc(Cl)c(Nc2ccccc2C(=O)O)c1Cl`, 5.64 µM corresponded to half-maximal inhibition in series [2] (IC50).
Take `CCOC(=O)c1c(C)nn(C(=O)c2cnn(-c3ccc(S(C)(=O)=O)cc3)c2N)c1N`: the Ratio IC50 in the series listed under Ovis aries is 247.
As to `CCOC(=O)c1cnn(C(=O)c2cnn(-c3ccc(S(C)(=O)=O)cc3)c2N)c1N`, the Ratio IC50 in the series listed under Ovis aries worked out at 247.
Regarding `COc1ccc2cc(C(C)C(=O)O/N=C(\N)c3ccc(Cl)cc3)ccc2c1` (configuration not stated), the Ratio IC50 in series [1] amounted to 13.
For `COc1ccc(-n2c(-c3ccc(C)cc3)cs/c2=N\NC(=O)Cn2nc(C)cc2-c2ccc(Cl)cc2)cc1`, in the series on Rattus norvegicus [3], the UI was 0.
With `CSc1nn(C(=O)c2c(C)nn(-c3ccc(S(N)(=O)=O)cc3)c2N)c(N)c1C#N`, the Ratio IC50 in the series filed under Ovis aries was 247.
Turning to `COc1ccc(/C(N)=N/OC(=O)C(C)c2ccc3cc(OC)ccc3c2)cc1` (configuration not stated), the Ratio IC50 in series [1] turned out to be 13.
As for `CCCn1c(-c2ccc(Cl)cc2)cs/c1=N\NC(=O)Cn1nc(C)cc1C`, the Activity in the series on Rattus norvegicus [4] is recorded as 97.3%.
`Cc1cc(C)n(C(=O)c2cnn(-c3ccc(S(C)(=O)=O)cc3)c2N)n1`: in the series filed under Ovis aries, the Ratio IC50 stood at 247.
Turning to `CSc1nn(C(=O)c2cnn(-c3ccc(S(C)(=O)=O)cc3)c2N)c(N)c1C#N`, the Ratio IC50 in the series filed under Ovis aries came out at 247.
